Results: patent US4297369A, “Certain muscle relaxant 3-methyl-2-benzofuran acetamides” (Kyowa Hakko Kogyo Co., Ltd., priority 1979, dated 1981)
Structures can show the parent of a compound that is named as a salt.

Key:
[1] = tested on: acetic acid writhing in mice; assay: Analgesic activity: acetic acid writhing; assay type: in vivo, male dd mice; conditions: number of writhes vs control
Protocol: Groups of 10 male dd mice weighing 19-21 g were used. One hr. after drug administration, 0.2 ml of a 0.7% aqueous solution of acetic acid was injected intraperitoneally. Ten min. after acetic acid injection, the number of writhes was counted for each mouse during the following 10 min. Drug activity is expressed as the percent inhibition of the number of writhes in the control group.

[2] = tested on: tonic extensor seizures in mice (electroshock); assay: Maximal electroshock convulsion test; assay type: in vivo, male dd mice; conditions: 100 mg/Kg p.o., 1 hr before shock; blocking tonic extensor seizures
Protocol: (§1) Anticonvulsant activity was determined according to the following three methods.
Groups of 10 male dd mice weighing 22-24 g were used. The drugs were orally administered and one hr. later, the mice were subjected to an electric current (2000 V, 50 mA) for 0.2 sec. through corneal electrodes. Drug activity is expressed as the percent blocking tonic extensor seizures.

[3] = Acute toxicity, oral, mice; conditions: mouse, in vivo, p.o., 7 days mortality
Protocol: (§2) Male dd mice weighing 19-21 g and male Wistar rats weighing 170-190 g were used in groups of 3-6 animals. The drugs were suspended in a 0.3% carboxymethyl cellulose solution and administered orally. […] As the reference compound, benzydamine.HCl was dissolved in water and administered orally. (In Example, 6, 7 and 8, the drugs and benzydamine. HCl were also administered in the same manner.

[4] = tested on: carrageenin hind paw edema in rats; assay: Anti-inflammatory activity: carrageenin paw edema; assay type: in vivo, male Wistar rats; conditions: edema 3 hr after carrageenin, vs control
Protocol: Groups of 5 male Wistar rats weighing 130-150 g were used. One hr. after drug administration, 0.1 ml of a 1% aqueous suspension of carrageenin was injected into the plantar surface of the right hind paw. The volume of the injected paw was measured before and 3 hr. after carrageenin injection by mercury displacement. Drug activity is expressed as the percent difference between the test and control groups' edema.

mice [5] = assay: Muscle relaxant activity: traction test; assay type: in vivo, male dd mice
Protocol: (§3) Groups of 5 male dd mice weighing 19-21 g were used. The mice which remained for a period of 3 min. on a 3 cm diameter rod rotating at 5 r.p.m. were selected and tested to determine the muscle relaxant activity at 1, 2 and 4 hr. after drug administration. The methods employed are as follows.
Forefeet of each mouse were placed on a wire to examine whether it fell off or not.
(§4) In each test, the compound was considered to have the muscle relaxant activity when the mice fell off.

mice [6] = assay: Muscle relaxant activity: slant test; assay type: in vivo, male dd mice
Protocol: as §3
Each mouse was mounted on a 45°-inclined wire netting to examine whether it fell off or not.
as §4

[7] = tested on: clonic seizures in mice (pentetrazol); assay: Pentetrazol convulsion test; assay type: in vivo, male dd mice; conditions: 1 hr before pentetrazol 120 mg/kg s.c.
Protocol: as §1
Groups of 10 male dd mice weighing 19-21 g were used. The drugs were orally administered and one hr. later, pentetrazol was injected subcutaneously at 120 mg/kg. Drug activity is expressed as the percent blocking clonic seizures.

mice [8] = assay: Muscle relaxant activity: rotating rod test; assay type: in vivo, male dd mice
Protocol: as §3
Each mouse was mounted on a rotating rod to examine whether it fell off or not within 2 min.
as §4

[9] = tested on: tonic extensor seizures in mice (strychnine); assay: Strychnine convulsion test; assay type: in vivo, male dd mice; conditions: 1 hr before strychnine 2 mg/kg s.c.
Protocol: as §1
Groups of 10 male dd mice weighing 19-21 g were used. The drugs were orally administered and one hr. later, strychnine was injected subcutaneously at 2 mg/kg. Drug activity is expressed as the percent blocking tonic extensor seizures.

[10] = Acute toxicity, oral, rats; conditions: rat, in vivo, p.o., 7 days mortality
Protocol: as §2

[11] = 300 mg/kg p.o., 1 hr after administration
[12] = 300 mg/kg p.o., 2 hr after administration
[13] = 300 mg/kg p.o., 4 hr after administration
[14] = 200 mg/kg p.o., 1 hr after administration
[15] = 200 mg/kg p.o., 2 hr after administration
[16] = 200 mg/kg p.o., 4 hr after administration

SMILES | Analgesic Activity, % Inhibition ([1]; 150 mg/Kg p.o.) | % Inhibition, Maximal Electroshock Test [2] | LD50 at 168 h [3] | Anti-inflammatory Activity, % Inhibition ([4]; 300 mg/Kg p.o.) | No. of falling mice/five tested mice, traction test (mice [5]; [11]) | No. of falling mice/five tested mice, traction test (mice [5]; [12]) | No. of falling mice/five tested mice, traction test (mice [5]; [13]) | No. of falling mice/five tested mice, slant test (mice [6]; [11]) | No. of falling mice/five tested mice, slant test (mice [6]; [12]) | No. of falling mice/five tested mice, slant test (mice [6]; [13]) | % Inhibition, Pentetrazole Convulsion Test ([7]; 150 mg/Kg p.o.) | No. of falling mice/five tested mice, rotating rod test (mice [8]; [11]) | No. of falling mice/five tested mice, rotating rod test (mice [8]; [12]) | No. of falling mice/five tested mice, rotating rod test (mice [8]; [13]) | % Inhibition, Strychnine Convulsion Test ([9]; 300 mg/Kg p.o.) | LD50 at 168 h [10] | also measured
COc1ccc2oc(CC(=O)N(C)C)c(C)c2c1 [A, 2-dimethylcarbamoylmethyl-3-methyl-5 methoxybenzo[b]furan] | 83.6% | 30% | > 1000 mg/kg | 23.3% | 2 mice/five tested mice | 2 mice/five tested mice | 0 mice/five tested mice | 3 mice/five tested mice | 1.5 mice/five tested mice | 0 mice/five tested mice | 40% | 5 mice/five tested mice | 3 mice/five tested mice | 1 mice/five tested mice | 60% | – | –
Cc1ccc2oc(CC(=O)N(C)C)c(C)c2c1 [B, 2-dimethylcarbamoylmethyl-3,5-dimethylbenzo[b]furan] | 24.0% | 80% | > 3000 mg/kg | 10.2% | 5 mice/five tested mice | 5 mice/five tested mice | 0 mice/five tested mice | 5 mice/five tested mice | 4 mice/five tested mice | 0 mice/five tested mice | 90% | 5 mice/five tested mice | 5 mice/five tested mice | 0 mice/five tested mice | 88% | > 3000 mg/kg | –
CN(C)CCCOc1nn(Cc2ccccc2)c2ccccc12 [Benzydamine . HCl, reference compound] | – | 100% | 500 to 1000 mg/kg | – | – | – | – | – | – | – | – | – | – | – | – | > 1500 mg/kg | Analgesic Activity, % Inhibition ([1]; 400 mg/Kg p.o.): 95.2%; Anti-inflammatory Activity, % Inhibition ([4]; 400 mg/Kg p.o.): 20.9%; No. of falling mice/five tested mice, traction test (mice [5]; [14]): 0 mice/five tested mice; No. of falling mice/five tested mice, traction test (mice [5]; [15]): 0 mice/five tested mice; No. of falling mice/five tested mice, traction test (mice [5]; [16]): 0 mice/five tested mice; No. of falling mice/five tested mice, slant test (mice [6]; [14]): 2 mice/five tested mice; No. of falling mice/five tested mice, slant test (mice [6]; [15]): 1 mice/five tested mice; No. of falling mice/five tested mice, slant test (mice [6]; [16]): 0 mice/five tested mice; % Inhibition, Pentetrazole Convulsion Test ([7]; 200 mg/Kg p.o.): 0%; No. of falling mice/five tested mice, rotating rod test (mice [8]; [14]): 4 mice/five tested mice; No. of falling mice/five tested mice, rotating rod test (mice [8]; [15]): 2 mice/five tested mice; No. of falling mice/five tested mice, rotating rod test (mice [8]; [16]): 0 mice/five tested mice; % Inhibition, Strychnine Convulsion Test ([9]; 100 mg/Kg p.o.): 70%
Cc1c(CC(=O)N(C)C)oc2ccc(-c3ccccc3)cc12 [C, 2-dimethylcarbamoylmethyl-3-methyl-5-phenylbenzo[b]furan] | 48.4% | 100% | > 1000 mg/kg | 20.4% | 2 mice/five tested mice | 3 mice/five tested mice | 0 mice/five tested mice | 1.5 mice/five tested mice | 1.5 mice/five tested mice | 0 mice/five tested mice | 30% | 3 mice/five tested mice | 3 mice/five tested mice | 0 mice/five tested mice | 70% | – | –
Cc1c(CC(=O)N(C)C)oc2ccc(F)cc12 [D, 2-dimethylcarbamoylmethyl-3-methyl-5-fluorobenzo[b]furan] | 32.9% | 85% | > 1000 mg/kg | 31.2% | 5 mice/five tested mice | 5 mice/five tested mice | 1 mice/five tested mice | 4.5 mice/five tested mice | 4.5 mice/five tested mice | 1 mice/five tested mice | 80% | 5 mice/five tested mice | 5 mice/five tested mice | 2 mice/five tested mice | 57% | – | –
